Measured values taken from the NIST ThermoML archive (doi:10.1021/acs.jced.8b00662).
± gives the expanded uncertainty stated by the source.

Assay: xn = mol fraction of the nth substance listed
Settings: 100 kPa, Liquid; for mass density: Vibrating tube method; for viscosity: Falling or rolling sphere viscometry

OCC1CC1 [cyclopropylmethanol] + c1ccc2c(c1)CCCC2
Settings	mass density [kg/m3]	viscosity [mPa·s]
318.15 K, x2 = 0	892.38 ± 1.1	–
318.15 K, x2 = 0.0993	900.96 ± 1.1	–
318.15 K, x2 = 0.1972	908.2 ± 1.1	–
318.15 K, x2 = 0.3008	914.89 ± 1.1	–
318.15 K, x2 = 0.3978	920.7 ± 1.1	–
318.15 K, x2 = 0.4986	926.13 ± 1.1	–
318.15 K, x2 = 0.6031	931.29 ± 1.1	–
318.15 K, x2 = 0.7031	935.88 ± 1.1	–
318.15 K, x2 = 0.7981	939.99 ± 1.1	–
318.15 K, x2 = 0.901	944.36 ± 1.1	–
323.15 K, x2 = 0	888.17 ± 1.1	1.825 ± 0.039
323.15 K, x2 = 0.0993	896.69 ± 1.1	1.644 ± 0.035
323.15 K, x2 = 0.1972	903.9 ± 1.1	1.517 ± 0.032
323.15 K, x2 = 0.3008	910.59 ± 1.1	1.423 ± 0.03
323.15 K, x2 = 0.3978	916.41 ± 1.1	1.355 ± 0.029
323.15 K, x2 = 0.4986	921.85 ± 1.1	1.305 ± 0.028
323.15 K, x2 = 0.6031	927.06 ± 1.1	1.271 ± 0.027
323.15 K, x2 = 0.7031	931.69 ± 1.1	1.254 ± 0.027
323.15 K, x2 = 0.7981	935.85 ± 1.1	1.235 ± 0.026
323.15 K, x2 = 0.901	940.3 ± 1.1	1.263 ± 0.027
328.15 K, x2 = 0	883.86 ± 1.1	1.629 ± 0.035
328.15 K, x2 = 0.0993	892.34 ± 1.1	1.476 ± 0.031
328.15 K, x2 = 0.1972	899.54 ± 1.1	1.369 ± 0.029
328.15 K, x2 = 0.3008	906.23 ± 1.1	1.291 ± 0.028
328.15 K, x2 = 0.3978	912.06 ± 1.1	1.22 ± 0.026
328.15 K, x2 = 0.4986	917.54 ± 1.1	1.195 ± 0.025
328.15 K, x2 = 0.6031	922.78 ± 1.1	1.169 ± 0.025
328.15 K, x2 = 0.7031	927.49 ± 1.1	1.156 ± 0.025
328.15 K, x2 = 0.7981	931.68 ± 1.1	1.157 ± 0.025
328.15 K, x2 = 0.901	936.23 ± 1.1	1.174 ± 0.025
333.15 K, x2 = 0	879.52 ± 1.1	1.46 ± 0.031
333.15 K, x2 = 0.0993	887.95 ± 1.1	1.331 ± 0.028
333.15 K, x2 = 0.1972	895.13 ± 1.1	1.241 ± 0.026
333.15 K, x2 = 0.3008	901.83 ± 1.1	1.176 ± 0.025
333.15 K, x2 = 0.3978	907.69 ± 1.1	1.131 ± 0.024
333.15 K, x2 = 0.4986	913.2 ± 1.1	1.1 ± 0.023
333.15 K, x2 = 0.6031	918.5 ± 1.1	1.08 ± 0.023
333.15 K, x2 = 0.7031	923.23 ± 1.1	1.071 ± 0.023
333.15 K, x2 = 0.7981	927.51 ± 1.1	1.076 ± 0.023
333.15 K, x2 = 0.901	932.14 ± 1.1	1.094 ± 0.023
338.15 K, x2 = 0	875.1 ± 1.1	1.316 ± 0.028
338.15 K, x2 = 0.0993	883.49 ± 1.1	1.205 ± 0.026
338.15 K, x2 = 0.1972	890.66 ± 1.1	1.13 ± 0.024
338.15 K, x2 = 0.3008	897.37 ± 1.1	1.078 ± 0.023
338.15 K, x2 = 0.3978	903.28 ± 1.1	1.041 ± 0.022
338.15 K, x2 = 0.4986	908.82 ± 1.1	1.015 ± 0.022
338.15 K, x2 = 0.6031	914.15 ± 1.1	1.004 ± 0.021
338.15 K, x2 = 0.7031	918.94 ± 1.1	0.996 ± 0.021
338.15 K, x2 = 0.7981	923.3 ± 1.1	1.003 ± 0.021
338.15 K, x2 = 0.901	928.03 ± 1.1	1.024 ± 0.022
343.15 K, x2 = 0	870.62 ± 1.1	1.19 ± 0.025
343.15 K, x2 = 0.0993	878.98 ± 1.1	1.095 ± 0.023
343.15 K, x2 = 0.1972	886.15 ± 1.1	1.033 ± 0.022
343.15 K, x2 = 0.3008	892.87 ± 1.1	0.99 ± 0.021
343.15 K, x2 = 0.3978	898.8 ± 1.1	0.961 ± 0.02
343.15 K, x2 = 0.4986	904.39 ± 1.1	0.941 ± 0.02
343.15 K, x2 = 0.6031	909.78 ± 1.1	0.933 ± 0.02
343.15 K, x2 = 0.7031	914.63 ± 1.1	0.931 ± 0.02
343.15 K, x2 = 0.7981	919.07 ± 1.1	0.941 ± 0.02
343.15 K, x2 = 0.901	923.91 ± 1.1	0.961 ± 0.02
